These results are taken from paper PMC11796312, “Multifunctional, Fluorene‐Based Modulator of Cholinergic and GABAergic Neurotransmission as a Novel Drug Candidate for Palliative Treatment of Alzheimer's Disease” (Angewandte Chemie (International Ed. in English), 2024).

One data set deals with hGAT‐3. The following applies: cited from earlier work.
Data set [1] deals with T1, human butyrylcholinesterase (hBuChE) (Homo sapiens, UniProt P06276).
T1 construct: from human plasma was from Vivonics (Bedford, MA, USA); purchased Vivonics (Bedford, MA, USA); host or cells: human plasma
T1 sequence (P06276 29-602): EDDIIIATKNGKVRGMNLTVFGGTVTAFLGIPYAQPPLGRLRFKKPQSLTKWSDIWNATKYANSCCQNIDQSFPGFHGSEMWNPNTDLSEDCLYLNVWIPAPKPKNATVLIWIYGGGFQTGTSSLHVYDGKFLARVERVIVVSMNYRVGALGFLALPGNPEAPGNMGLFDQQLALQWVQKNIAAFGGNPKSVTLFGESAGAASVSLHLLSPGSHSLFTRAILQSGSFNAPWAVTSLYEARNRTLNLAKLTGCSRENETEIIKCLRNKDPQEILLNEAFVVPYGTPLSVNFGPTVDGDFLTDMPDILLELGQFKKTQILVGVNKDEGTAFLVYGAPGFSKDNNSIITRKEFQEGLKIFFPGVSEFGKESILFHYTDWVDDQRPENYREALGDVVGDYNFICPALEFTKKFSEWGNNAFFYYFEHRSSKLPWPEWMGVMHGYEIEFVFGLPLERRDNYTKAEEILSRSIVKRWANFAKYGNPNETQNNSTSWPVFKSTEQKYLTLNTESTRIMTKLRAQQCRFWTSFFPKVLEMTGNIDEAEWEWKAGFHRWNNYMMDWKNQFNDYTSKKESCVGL
As to the kind of experiment: biochemical. The following applies: inhibitor concentration 1 μM; read-out: hBuChE % inh.

Data set [2] has as its system mice treated with scopolamine. As to the kind of experiment: Passive avoidance (PA) task, scopolamine-induced amnesia. In kind it is in vivo. The following applies: mouse, in vivo. As to the method: Animals and housing conditions
In all pharmacodynamic in vivo experiments, except for the Barnes maze (BM) task, adult male Albino Swiss (CD-1) mice weighing between 18 and 22 g and purchased from the Animal Breeding Farm of the Faculty of Pharmacy, Jagiellonian University Medical College were used. In BM task, C57BL/6J mice of the same weight (Animalab, Poland) were used.
Animals were housed in cages (10 mice per cage) at a constant temperature of 22 ± 2 °C, humidity of 55 ± 10%, and a light/dark (12:12) cycle (lights on at 7 AM). Before the experiments, the animals had unlimited access to food and water. Specified conditions for the maintenance of mice were ensured throughout the experiments, including tree bedding (Transwior, Poland) and cage enrichment (tunnels, nesting material, wooden igloos, etc.). […]
doses for behavioral assays. Lower doses were also assessed if at least one of them was […]
On the first day, during the acquisition trial (a conditioning phase), the test compound 6, scopolamine, and vehicle were injected. […] The latency between opening the guillotine gate and the mouse entering the black compartment was measured for each mouse. On the next day, during the retention (drug-off) trial, the mice were placed again into the white compartment for a 30-s habituation period, and the latency to enter the black compartment was measured for each mouse. […]

A further data set has as its system BuChE. To be noted: 1 or 5 µM compound (printed '1 or 5 M'), vs DMSO.
Data set [3] concerns Human neuroblastoma cells SH-SY5Y. As to the kind of experiment: MTT cell viability assay, SH-SY5Y. It is filed as cell-based. To be noted: 24 h, read-out: IC50 (MTT) ± SEM. The source says: (§1) Human neuroblastoma cells SH-SY5Y and mouse microglial cells SIM-A9 were used to evaluate cell viability, intracellular RONS, and malondialdehyde (MDA; CAS No. 542–78-9).
(§2) SH-SY5y cells were cultivated in Dulbecco's modified Eagle's medium (DMEM; Biosera, Nuaille, France) supplemented with 10% fetal bovine serum (Biosera) and 1% penicillin-streptomycin antibiotic solution (Sigma-Aldrich, St. Louis, MO, USA). The culture medium for SIM-A9 cells was further supplemented with donor horse serum (Biosera). The cells were incubated at 37 °C in a CO2 incubator (BINDER CO2 incubator CB 160, Tuttlingen, Germany) and routinely passaged by trypsinization at 75 –85% confluence.
(§3) Colorimetric Cell Viability Assay
(§4) The toxicological indices IC 50 used in the present study were measured utilizing 3-(4,5-dimethylthiazol-2-yl)-2,5-diphenyl-tetrazolium bromide (MTT) reduction assay after (1 picture or pasted object on this page, not shown here)
(§5) 24 h incubation with tested compounds. […]
(§6) incubation, the cultivation medium containing serially diluted substances was aspirated and replaced with a fresh medium containing MTT at a concentration of 0.5 mg/mL and subsequently incubated at 37 °C for 1 h. […] Cell viability was assessed spectrophotometrically by the amount of formazan produced. Absorbance was measured at 570 nm with 650 nm reference wavelength on Spark (Tecan Group Ltd, Switzerland). […]
(In general: Formazan colour is commonly taken as a measure of viable cells.)

The subject of data set [4] is mouse microglial cells SIM-A9. Put plainly: MTT cell viability assay, SIM-A9. The following applies: SIM-A9, 24 h; read-out: IC50 (MTT) ± SEM. In kind it is cell-based.
Excerpt: as §1, §2, §3, §4, §5, §6

For data set [5], the system named is SH-SY5Y cells. As to the kind of experiment: Intracellular RONS, DCFH-DA probe, SH-SY5Y. It is filed as cell-based, human.
For data set [6], the system named is SIM-A9 cells. Put plainly: Intracellular RONS, DCFH-DA probe, SIM-A9. In kind it is cell-based, mouse.
Data set [7] has as its system SH-SY5Y cells. Put plainly: Intracellular O2•-, DHE probe, SH-SY5Y. In kind it is cell-based, human.
The test system of data set [8] is SIM-A9 cells. As to the kind of experiment: Intracellular O2•-, DHE probe, SIM-A9. It is filed as cell-based, mouse.
The test system of data set [9] is SH-SY5Y cells. Put plainly: LC-MS determination of total MDA, SH-SY5Y. It is filed as cell-based, human.
In data set [10] the test system is SIM-A9 cells. Put plainly: LC-MS determination of total MDA, SIM-A9. In kind it is cell-based, mouse.

“Also recorded” adds a separate entry of the source. Like-named read-outs stand apart in the source and are kept apart here.

As a reminder, the IC50 is the point on the concentration scale where inhibition reaches its midpoint.

As for `COc1ccc(C(OCCN2CCC[C@H](C(=O)O)C2)(c2ccc(OC)cc2)c2ccc(OC)cc2)cc1` [(S)‐SNAP‐5114, reference compound], in the data set with hGAT‐3, the IC50 is 45 µM.
Turning to `O=C(CC(c1ccccc1)c1ccccc1)N[C@@H](Cc1ccccc1)[C@@H](O)CNCc1ccccc1` [Compound I], the inhibition at 1 µM in data set [1] was found to be 67.7%. Moreover, in data set [2], the “pro-cognitive effect in passive avoidance task” value was “did not observe pro‐cognitive effects; also recorded: non active”. Further, the IC50 in the data set with hGAT‐3 (earlier screening) was 3 µM.
Turning to `Nc1c2c(nc3ccccc13)CCCC2` [Tacrine, reference compound], the “Melting temperature (Tm) of BuChE” value with BuChE is reported as “increased Tm of BuChE”.
With `CC(C)(C)OO` [tBHP], the IC50 in data set [3] amounted to 19.9 ± 1.35 µM; in data set [4], 60.4 ± 3.54 µM. Moreover, the “intracellular RONS, fold vs untreated control” value came to 1.25 fold in the data set with SH-SY5Y cells [5] (conc. = IC50, 1 h) and 1.11 fold with SH-SY5Y cells [5] (conc. = IC50, 4 h). For the same compound, the “intracellular RONS change” value in the data set with SH-SY5Y cells [5] (conc. = IC50, 24 h) was “decrease of RONS”. For the same compound, the “intracellular RONS, fold higher” value in the data set on SH-SY5Y cells [5] (conc. = ½ IC50, 1 h) worked out at 1.12 fold. Also, the “intracellular RONS, times higher” value with SIM-A9 cells [6] (conc. = IC50, 1 h) came out at 1.21 fold. In addition, in the data set on SIM-A9 cells [6] (conc. = IC50, 24 h), the “intracellular RONS, times lower” value was 1.30 fold. Besides, the “intracellular O2•-, times higher” value in the data set with SH-SY5Y cells [7] (IC50, 1 h) is 1.25 fold; in the data set on SH-SY5Y cells [7] (IC50, 4 h), 1.23 fold; in the data set on SH-SY5Y cells [7] (¼ IC50, 1 h), 1.10 fold; with SH-SY5Y cells [7] (¼ IC50, 4 h), 1.10 fold; in the data set with SH-SY5Y cells [7] (½ IC50, 1 h) it was 1.22 fold; with SH-SY5Y cells [7] (½ IC50, 4 h), 1.16 fold. In addition, the “intracellular O2•-, times higher” value in the data set with SIM-A9 cells [8] (IC50, 1 h) was determined as 1.11 fold; in the data set with SIM-A9 cells [8] (IC50, 4 h) it was 1.10 fold; in the data set on SIM-A9 cells [8] (IC50, 24 h), 1.25 fold; in the data set with SIM-A9 cells [8] (½ IC50, 1 h) it was 1.10 fold; in the data set on SIM-A9 cells [8] (½ IC50, 4 h), 1.10 fold; in the data set on SIM-A9 cells [8] (½ IC50, 24 h) it was 1.32 fold. In addition, the “intracellular O2•-, fold higher” value is given as 1.11 fold with SH-SY5Y cells [7] (IC50, 24 h); 1.10 fold in the data set on SH-SY5Y cells [7] (½ IC50, 24 h); 1.27 fold in the data set on SIM-A9 cells [8] (¼ IC50, 24 h). For the same compound, the “MDA level, times higher” value with SH-SY5Y cells [9] (IC50, 1 h) is 1.45 fold; in the data set with SH-SY5Y cells [9] (IC50, 24 h), 1.61 fold; in the data set with SH-SY5Y cells [9] (¼ IC50, 1 h), 1.23 fold; in the data set on SH-SY5Y cells [9] (¼ IC50, 24 h) it was 1.11 fold; with SH-SY5Y cells [9] (½ IC50, 1 h), 1.18 fold; with SH-SY5Y cells [9] (½ IC50, 24 h), 1.20 fold. The “MDA level, times higher” value in the data set on SIM-A9 cells [10] (IC50, 4 h) was 1.27 fold; in the data set on SIM-A9 cells [10] (highest concentration (IC50), 1 h), 1.18 fold; in the data set on SIM-A9 cells [10] (¼ IC50, 4 h), 1.16 fold; in the data set on SIM-A9 cells [10] (½ IC50, 4 h) it was 1.18 fold. Besides, the “MDA level, fold higher” value with SH-SY5Y cells [9] (IC50, 4 h) came to 1.45 fold; with SH-SY5Y cells [9] (½ IC50, 4 h), 1.18 fold; in the data set on SIM-A9 cells [10] (IC50, 24 h) it was 1.45 fold; in the data set on SIM-A9 cells [10] (½ IC50, 24 h) it was 1.15 fold.
